One series addresses T1, Mts1 (S100A4) (Homo sapiens, UniProt P26447).
T1 construct: a functional fragment of the Tag7 protein (PGLYRP1) and a full-sized Mts1 protein (S100A4); His tag (from vector pQE-30; purified on HisTrap FF) (N); made in house; host or cells: Escherichia coli M15 (pREP4)
Description: Microscale thermophoresis, binding to labeled Mts1. Here is the method: To evaluate the protein–protein interaction of Mts1 with Tag7 and with peptides, 17.1, 17.1A, and 17.1B, a quantitative microscale thermophoresis method was used to reliably determine the parameters of the interaction of protein complexes.
To study the dissociation constant, purified Mts1 was fluorescently labeled using Alexa Fluor 633 (Invitrogen, Eugene, OR, USA) in accordance with the manufacturer’s protocol. Mts1 (200 nM) was preincubated for 20 min with Tag7-Mts1, 17.1-Mts1, 17.1A-Mts1, and 17.1B-Mts1 in the dark at room temperature in 16 different concentrations, obtained by sequential dilution. To study the dissociation constant of Tag7 with M7, Tag7 was fluorescently labeled using Alexa Fluor 488 (Invitrogen, Eugene, OR, USA) in accordance with the manufacturer’s protocol. Tag7 (200 nM) was preincubated for 20 min with M7 in the dark at room temperature in 16 different concentrations, obtained by sequential dilution. The samples were loaded into glass capillaries of Monolith NT Capillaries (NanoTemper Technologies GmbH, München, Germany) and analyzed by thermophoresis on a Monolith NT 115 nanotemperature apparatus (10% IR laser power). The signal quality was monitored using a NanoTemper Monolith device to detect possible ligand autofluorescence, deposition, aggregation, or ligand-induced changes in the photobleaching rate. The experiments were carried out in at least three repetitions and processed using affinity analysis software (MO Control v.1.6.1, NanoTemper Technologies GmbH, München, Germany).
A general note: Microscale thermophoresis detects binding through changes in fluorescence in a small temperature gradient.

The next series concerns L929 cells. Description: Cytotoxicity, L929 cells. The conditions noted are these: complexes of Mts1 with 17.1A, 17.1B or full-sized Tag7; L929 cells (Figure 2b), 24 h, n = 5. In kind it is cell-based.
A further series concerns TNFR1. The note with it: cited from earlier work; for inhibition of cytotoxic effect of TNFR1 ligands: ref [19]. The source says: (§1) We investigated developing cytotoxic processes during TNFR1 activation and found two new proteins interacting with this receptor: the immune system regulator PGLYRP1 (Tag7) and DNA-hydrolyzing autoantibodies. […] For the manifestation of Tag7 cytotoxic action, the presence of a coactivator, stimulating cytotoxicity, is necessary. During antitumor studies, a cytotoxic complex released by human ... || Structural and functional analyses of Tag7 made it possible to localize the epitope of this protein necessary for interaction with TNFR1 and Hsp70. […] It was also possible to separate the activities of this bifunctional peptide.

Another series relates to Hsp70. The note with it: ref [19]; cited from earlier work. The source says: Structural and functional analyses of Tag7 made it possible to localize the epitope of this protein necessary for interaction with TNFR1 and Hsp70. […] It was also possible to separate the activities of this bifunctional peptide.
For a further series, the system named is Mts1. Description: Affinity chromatography on 17.1-Sepharose with Western blot for Mts1. In kind it is binding, human. The conditions noted are these: recombinant Mts1 100 ng, 17.1 immobilized on CNBr-activated Sepharose; eluted 0.25 M triethylamine; Mts1 eluted as tetramer. Here is the method:
In the previous section, we noted the competition between Hsp70 and Mts1 for the binding center of Tag7. We have shown that Hsp70 interacts with peptide 17.1, which is located at the C-terminal region of the polypeptide chain Tag7. […] The recombinant Mts1 protein (100 ng total protein, 0.1 mg/mL) was applied to CNBr-activated Sepharose with immobilized peptide 17.1. The bound proteins were eluted and analyzed using SDS-PAGE and a subsequent Western blot test with specific anti-Mts1 antibodies. It was shown that Mts1 is present in the eluate in the form of a tetramer (Figure 1).
A column with CNBr-activated Sepharose 4B (GE Healthcare, Chicago, IL, USA) conjugated with 17.1 was prepared as described in accordance with the manufacture’s protocol. The recombinant Mts1 protein was loaded into a column with 17.1-Sepharose 4B. Then, the material was extensively washed with PBS plus 0.5 M NaCl, followed by PBS, eluted with 0.25 M triethylamine, pH 12. The eluted material was resolved using 12% SDS-PAGE and applied to a nitro-cellulose membrane. […] The chemiluminescence was recorded using iBright (Thermo Fisher Scientific, Boston, MA, USA). […] Protein concentrations were quantified using a Bradford assay kit (Thermo Fisher Scientific, Carlsbad, CA, USA). […]

The test system of series [1] is TNFR1-positive tumor cells. The note with it: cited from earlier work.
From the text: as §1

The subject of series [2] is TNFR1 on the surface of HEK293T cells. Description: Cross-linking (BS3) to TNFR1 on cell surface, anti-TNFR1 pull-down, Western blot. In kind it is binding, human. The conditions noted are these: 17.1-Mts1 at 1 nM, anti-TNFR1 beads. Here is the method: We investigated the ability of peptide 17.1 to form a complex with Mts1 and TNFR1 on the cell surface. The 17.1-Mts1 complex was added to HEK293T cells with TNFR1s on their surface. After incubation, a crosslinking agent (BS^3) was added, forming covalent bonds between molecules located at a distance of less than 1 nm at the time of addition. Next, the cells were lysed, and membrane proteins were precipitated using anti-TNFR1 antibodies conjugated with magnetic beads. The obtained material was separated using SDS electrophoresis and detected using Western blotting with polyclonal antibodies to Mts1 or Tag7.
A column with CNBr-activated Sepharose 4B (GE Healthcare, Chicago, IL, USA) conjugated with 17.1 was prepared as described in accordance with the manufacture’s protocol. The recombinant Mts1 protein was loaded into a column with 17.1-Sepharose 4B. Then, the material was extensively washed with PBS plus 0.5 M NaCl, followed by PBS, eluted with 0.25 M triethylamine, pH 12. The eluted material was resolved using 12% SDS-PAGE and applied to a nitro-cellulose membrane. […] The chemiluminescence was recorded using iBright (Thermo Fisher Scientific, Boston, MA, USA). […] Protein concentrations were quantified using a Bradford assay kit (Thermo Fisher Scientific, Carlsbad, CA, USA). […]
Background: In western blotting, separated proteins are transferred to a membrane and probed.

For a further series, the system named is Tag7-Hsp70 complex. The note with it: excess of Mts1; ref [22]; cited from earlier work. The source says: (§2) During a study on the anticancer effect of the Tag7-Hsp70 complex on metastatic cells, the second partner of the Tag7 protein was identified. Tag7 interacts with Mts1 (metastasin 1, S100A4), a member of the S-100 family involved in metastasis processes. Both proteins form the Tag7-Mts1 chemotactic complex.

Another series concerns lymphocytes. The conditions noted are these: ref [22]; cited from earlier work.
From the text: as §2

Entries after “also recorded” stand apart in the source; their conditions may differ. No end group written: not given here.

What is called Kd is the concentration at which binding is half-saturated.

T1 sequence (P26447 whole entry, the tested form may be a part): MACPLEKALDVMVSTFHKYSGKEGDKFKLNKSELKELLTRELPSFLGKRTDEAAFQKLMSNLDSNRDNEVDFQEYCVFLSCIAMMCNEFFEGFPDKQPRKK

Turning to RSNYVLKG [17.1A], on Mts1 (S100A4), the “affinity for Mts1 (in words)” value was “significantly higher apparent Kd; also recorded: low affinity”. In addition, the “cytotoxic activity in complex with Mts1” value with L929 cells is “does not contribute to the appearance of cytotoxicity”. In addition, the “inhibition of cytotoxic effect of TNFR1 ligands” value in the series with TNFR1 was “responsible for binding to TNFR1 and inhibiting cytotoxicity”.
Take “Tag7: recombinant full-size Tag7 protein (PGLYRP1)”: the “affinity for Mts1 (in words)” value with Mts1 (S100A4) was “significantly higher apparent Kd”. Further, the “cytotoxic activity in complex with Mts1” value in the series on L929 cells is listed as “does not have a cytotoxic effect on cells; also recorded: does not form a cytotoxic complex with the Mts1 protein”. In addition, in the series on TNFR1 (previous work, reference not clearly printed), the “inhibition of cytotoxic activity of TNF and other TNFR1 ligands” value was “acts as an inhibitor of the cytotoxic activity of TNF and other TNFR1 ligands”.
As to HRDVQRT [17.1B], the “affinity for Mts1 (in words)” value at Mts1 (S100A4) is reported as “highly specific”. The “affinity for Hsp70” value with Hsp70 is “high affinity for Hsp70”.
As to SNYVLKGHRDVQ [17.1], on Mts1 (S100A4), the “affinity for Mts1 (in words)” value is listed as “highly specific”. Besides, in the series with Mts1, the “binding to Mts1” value is given as 17.1 binds to Mts. For the same substance, in series [1] (in combination with Hsp70, ref [19]), the “death of tumor cells in combination with Hsp70” value was “induces the death of tumor cells”. Besides, in the series on TNFR1, the “inhibition of cytotoxic effect of TNFR1 ligands” value is given as “inhibits the cytotoxic effect of TNFR1 ligands”.
“Mts1: recombinant human Mts1 (S100A4) protein”: in [2], the “interaction with TNFR1 on cell surface” value is reported as “binds to the TNFR1 receptor on the cell surface”. The “displacement of Hsp70 from Tag7-Hsp70 complex” value in the series with Tag7-Hsp70 complex is reported as “displaces Hsp70 from the Tag7-Hsp70 complex”.
Consider “Tag7-Mts1: complex of full-sized Tag7 with Mts1”, for which the Kd with Mts1 (S100A4) (first-named partner titrated (16 concentrations) to Alexa Fluor 633-labeled Mts1 (200 nM), 20 min, room temperature, at least three repetitions, mean ± SD) was determined as 9.21 ± 1.5 µM. Further, in [1] (previous study, ref [22]), the cytotoxic activity result is on record as “no cytotoxic activity”. In the series on lymphocytes, the chemotactic activity entry is listed as “induces the movement of lymphocytes along the concentration gradient of this complex”.

These data come from PMC11203719, “Mts1 (S100A4) and Its Peptide Demonstrate Cytotoxic Activity in Complex with Tag7 (PGLYRP1) Peptide” (International Journal of Molecular Sciences, 2024).
